Our source for the IC50 and DC50 values is US20240366770A1, “DEGRADATION OF BRUTON'S TYROSINE KINASE (BTK) BY CONJUGATION OF BTK INHIBITORS WITH E3 LIGASE LIGAND AND METHODS OF USE” (BeiGene Switzerland GmbH, priority 2021, published 2024).

In general, DC50 refers to the concentration at which degradation of the target reaches its halfway point. A low value points to degradation at low concentration.

The subject of one assay is HEK-293 cells. Nature of the assay: HEK-293 cytotoxicity detection (CellTiter-Glo). In kind it is cell-based. The settings on record: HEK-293 cells, 72 h incubation, CellTiter-Glo luminescence, IC50 of cell proliferation inhibition, read-out: HEK293. Here is the method:
HEK-293 cells were treated with compounds diluted in 0.2% DMSO, dilution was done according to the following protocol: (1) making 500× stock solution in DMSO from 5 mM by 4-fold dilution, total 8 doses were included; (2) making 2× solution in cell culture medium by transferring 0.5 ul 500× stock solution into 125 μl medium; (3) adding 50 μl of 2× solution to cells for incubation of 72 h.
25 μl of the CellTiter-Glo®Reagent [(Promega) -Cat No. G7572] was added to each well in the 96-well plate. The contents were mixed for 2 minutes on an orbital shaker to induce cell lysis. The plate was then allowed to incubate at room temperature for 10 minutes to stabilize luminescent signal. Luminescence was recorded on BMG PheraStar with luminescence protocol.
The IC50 value of a compound can be obtained by fitting the following equation
(§1) Wherein, X and Y are known values, and IC50, Hillslope, Top and Bottom are the parameters obtained by fitting with software. Y is the inhibition percentage (calculated from the equation), X is the concentration of the compound; IC50 is the concentration of the compound when the 50% inhibition is reached. The smaller the IC50 value is, the stronger the inhibitory ability of the compound is. Vice versa, the higher the IC50 value is, the weaker the ability the inhibitory ability of the compound is; Hillslope represents the slope of the fitted curve, generally around 1 *; Bottom represents the minimum value of the curve obtained by data fitting, which is generally 0%±20%; Top represents the maximum value of the curve obtained by data fitting, which is generally 100%±20%. The experimental data were fitted by calculating and analyzing with Dotmatics data analysis software.

A further assay deals with T1, BTK (Homo sapiens, UniProt Q06187).
T1 construct: High control=Cell group with added DMSO and without compound, indicating microplate readings without BTK degradation; endogenous in cells; host or cells: TMD-8
T1 sequence (Q06187 whole entry): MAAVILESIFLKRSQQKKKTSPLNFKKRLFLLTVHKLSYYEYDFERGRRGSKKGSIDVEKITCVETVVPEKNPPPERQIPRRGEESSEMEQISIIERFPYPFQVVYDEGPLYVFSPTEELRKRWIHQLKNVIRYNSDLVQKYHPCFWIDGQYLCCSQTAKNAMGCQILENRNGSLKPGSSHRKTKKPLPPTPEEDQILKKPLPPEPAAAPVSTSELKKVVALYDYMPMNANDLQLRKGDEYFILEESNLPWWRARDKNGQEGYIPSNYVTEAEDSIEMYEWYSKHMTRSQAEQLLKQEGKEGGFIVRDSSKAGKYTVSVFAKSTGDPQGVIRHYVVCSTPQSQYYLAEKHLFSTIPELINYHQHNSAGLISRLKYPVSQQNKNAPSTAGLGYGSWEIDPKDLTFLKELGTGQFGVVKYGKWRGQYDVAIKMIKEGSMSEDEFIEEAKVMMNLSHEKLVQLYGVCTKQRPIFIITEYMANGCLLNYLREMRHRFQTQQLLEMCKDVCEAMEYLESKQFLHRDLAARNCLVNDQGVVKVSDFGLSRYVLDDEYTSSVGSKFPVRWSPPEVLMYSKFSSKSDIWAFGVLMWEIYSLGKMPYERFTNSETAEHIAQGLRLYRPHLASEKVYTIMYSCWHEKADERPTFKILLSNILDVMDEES
Nature of the assay: BTK degradation in TMD-8 cells (HTRF assay). It is filed as cell-based. The note with it: 6 h treatment, IC50 (DC50) of BTK degradation. As to the method:
TMD-8 cells were treated with compounds diluted in 0.2% DMSO, dilution was done according to the following protocol: (1) making 500× stock solution in DMSO from 1 mM by 6-fold dilution, total 8 doses were included; (2) making 2× solution in cell culture medium by transferring 0.5 μl 500× stock solution into 125 μl medium; (3) adding 15 μl of 2× solution to cells for incubation of 6 h.
After 6 h treatment, 10 μl 4× lysis buffer was added to each well; the plate was sealed and incubated for 30 min at room temperature on a plate shaker; Once the cells was lysed, 16 μL of cell lysate were transferred to a PE 384-well HTRF detection plate; 4 μL of pre-mixed HTRF antibodies were added to each well; the plate was covered with a plate sealer, and then spinned at 1000 rpm for 1 min, then incubated overnight at room temperature; the results were read on BMG PheraStar with HTRF protocol (337 nm-665 nm-620 nm).
The IC50 (DC50) value of a compound can be obtained by fitting the following equation
as §1, with “wherein,” for “Wherein,”

pIC50: −log10 of the molar value. Read-outs that look alike come from different tables or passages of the source.

In the case of `Cc1c([C@@H](C)NC(=O)c2noc(C(C)(C)C)n2)ccc(-c2ncnc3[nH]c4cc(N5CCN(CC6CC(c7ccc(C8CCC(=O)NC8=O)cc7)C6)CC5)ccc4c23)c1F` (stereo partly drawn) [Example 30, 5-(tert-butyl)-N-((1R)-1-(4-(7-(4-((3-(4-(2,6-dioxopiperidin-3-yl)phenyl)cyclobutyl)methyl)piperazin-1-yl)-9H-pyrimido[4,5-b]indol-4-yl)-3-fluoro-2-methylphenyl)ethyl)-1,2,4-oxadiazole-3-carboxamide], the pIC50 in the assay with HEK-293 cells (Homo sapiens) was under 5.00. At BTK, this compound yielded a DC50 of 4.55 nM.
In the same order, the values of `Cc1cc(-c2ncnc3[nH]c4cc([C@@H]5CCN(CC6CCN(c7ccc(N8CCC(=O)NC8=O)cc7)CC6)C5)ccc4c23)ccc1[C@@H](C)NC(=O)c1nc(C(C)(C)C)no1` [Example 13, 3-(tert-butyl)-N—((R)-1-(4-(7-((S)-1-((1-(4-(2,4-dioxotetrahydropyrimidin-1(2H)-yl)phenyl)piperidin-4-yl)methyl)pyrrolidin-3-yl)-9H-pyrimido[4,5-b]indol-4-yl)-2-methylphenyl)ethyl)-1,2,4-oxadiazole-5-carboxamide] are 5.49 and 1.05 nM.
Take `COc1cc2c(cc1N1CCN(CC3CCN(c4ccc(N5CCC(=O)NC5=O)cc4)CC3)CC1)[nH]c1ncnc(-c3ccc([C@@H](C)NC(=O)c4nc(C(C)(C)C)no4)c(C)c3)c12` [Example 46, (R)-3-(tert-butyl)-N-(1-(4-(7-(4-((1-(4-(2,4-dioxotetrahydropyrimidin-1(2H)-yl)phenyl)piperidin-4-yl)methyl)piperazin-1-yl)-6-methoxy-9H-pyrimido[4,5-b]indol-4-yl)-2-methylphenyl)ethyl)-1,2,4-oxadiazole-5-carboxamide]: the pIC50 with HEK-293 cells (Homo sapiens) is under 5.00. Further, on BTK, half-maximal degradation (DC50) was put at 0.366 nM.
The corresponding values for `Cc1cc(-c2ncnc3[nH]c4cc(N5CCN(C6CN(C7CN(c8ccc(N9CCC(=O)NC9=O)cc8)C7)C6)CC5)ccc4c23)ccc1[C@@H](C)NC(=O)c1nc(C2(C)CC2)no1` [Example 122, (R)—N-(1-(4-(7-(4-(1′-(4-(2,4-dioxotetrahydropyrimidin-1(2H)-yl)phenyl)-[1,3′-biazetidin]-3-yl)piperazin-1-yl)-9H-pyrimido[4,5-b]indol-4-yl)-2-methylphenyl)ethyl)-3-(1-methylcyclopropyl)-1,2,4-oxadiazole-5-carboxamide] are under 5.00 and 0.395 nM.
In the same order, the values of `Cc1cc(-c2ncnc3[nH]c4cc(N5CCN(CCc6ccc(N7CCC(=O)NC7=O)cn6)CC5)ccc4c23)ccc1[C@@H](C)NC(=O)c1nc(C(C)(C)C)no1` [Example 19, (R)-3-(tert-butyl)-N-(1-(4-(7-(4-(2-(5-(2,4-dioxotetrahydropyrimidin-1(2H)-yl)pyridin-2-yl)ethyl)piperazin-1-yl)-9H-pyrimido[4,5-b]indol-4-yl)-2-methylphenyl)ethyl)-1,2,4-oxadiazole-5-carboxamide] are 5.25 and 0.564 nM.
On to `COc1cc2c(cc1N1CCN([C@H]3C[C@@H](c4ccc(O[C@H]5CCC(=O)NC5=O)cc4)C3)CC1)[nH]c1ncnc(-c3ccc([C@@H](C)NC(=O)c4nc(C(C)(C)C)no4)c(C)c3)c12` [Example 128, 3-(tert-butyl)-N—((R)-1-(4-(7-(4-((1R,3s)-3-(4-(((S)-2,6-dioxopiperidin-3-yl)oxy)phenyl)cyclobutyl)piperazin-1-yl)-6-methoxy-9H-pyrimido[4,5-b]indol-4-yl)-2-methylphenyl)ethyl)-1,2,4-oxadiazole-5-carboxamide], for which the pIC50 in the assay with HEK-293 cells is under 5.00. The same compound came in with a DC50 on BTK of 2.12 nM.
